The text below walks through data of US11389463B2, “Antiviral nucleoside reverse transcriptase inhibitor” (priority 2017, dated 2022).

One data set has as its system HIV-1. Description: Detection of in vitro anti-HIV activity (HIV-1 infected MT-4 cells, CellTiter-glo). The format is cell-based. As to conditions: Human immunodeficiency virus 1, MT4, 120 h, 5 days, read-out: HIV activity and cytotoxicity data EC50. (In ATP-based viability assays light output follows the ATP content of the culture.)
Data set [1] in a line: Cytotoxicity experiments of the anti-HBV test (Cell-titer Blue). As to conditions: human, HepG2.2.15 cells, six days after treatment. The format is cell-based. The method, then: Cytotoxicity experiments: the arrangement of compounds on plate and compound-treatment process were the same as that of […] activity. Six days after the cells were treated by compounds, the cell activity was tested. Cell-titer Blue reagent was added to each well, the cells were incubated at 37° C. for 3 hours, and fluorescence values were read (560Ex/590 Em). The data were analyzed and the relative cell viability was calculated:
The percentage of cell viability was calculated using the following formula: % cell viability=(fluorescence reading of sample−fluorescence reading of culture control)/(fluorescence reading of DMSO control−fluorescence reading of culture control)×100.
Finally, the CC50 value of the compounds were calculated by the GraphPad Prism software.

Data set [2] in a line: Cytotoxicity assay in uninfected MT-4 cells (CellTiter-glo). The data set is classed as cell-based. As to conditions: human, read-out: HIV activity and cytotoxicity data CC50. As to the method: The data was analyzed by GraphPad Prism software, and the curve was fitted and EC50 and CC50 values were calculated. EC50 refers to the effective concentration that inhibits 50% virus production, 50% virus infectivity, or 50% virus-induced cellular effects. CC50 refers to the inhibitory concentration that reduces the cell growth or viability of uninfected cells by 50%.
Viral infection and cell treatment: HIV-1 and MT-4 cells were co-incubated at 37° C., in an incubator with 5% CO2 for 1 h. The infected cells were then seeded in a cell culture plate at a certain density. The final concentration of DMSO in the cell culture medium was 0.5%. The cells were incubated at 37° C., in an incubator with 5% CO2 for 5 days. The cells tested in the cytotoxicity assay were uninfected MT-4 cells, and other test conditions were with the same as that of the antiviral activity assay.
The activity assay of the cell: the cell viability was tested by using cell viability assay reagent CellTiter-glo (Promega). The raw data was used for calculating the anti-HIV-1 activity and cytotoxicity of the Compounds.

Another data set has as its system HBV. Description: Detection of anti-HBV activity in vitro (HepG2.2.15 cells, HBV DNA by quantitative PCR). As to conditions: Hepatitis B virus, HBV DNA in supernatant on the eighth day, read-out: HBV activity and cytotoxicity data EC50. The format is cell-based. The method, then: Anti-cell viability assay: in vitro anti-hepatitis b virus activity of Example compounds was tested in HepG2.2.15 cells with TDF as a positive control compound. Cells were seeded into a 96-well plate on the first day; the compounds were added to treat the cells on the next day; and a new culture medium containing the compounds was replaced on the fifth day. On the eighth day, the supernatant was collected for DNA extraction. The content of HBV DNA was detected by quantitative PCR. Both test compound and TDF were subjected to a 3-fold serial dilution to get 8 concentration points in duplicate. The final concentration of DMSO in the culture medium was 0.5%. The formula for calculating the percentage of inhibition is as follows: Inhibition rate=(1−copy number of HBV in sample/copy number of HBV in DMSO control group)×100%

The nature of data set [3]: Liver microsomal metabolism experiment, rat liver microsomes. The format is in vitro ADME. As to conditions: SD, pH 7.4, 1 μM compound, 0.5 mg/mL protein, NADPH. The method, then: (§1) Microsomal experiments: human liver microsomes: 0.5 mg/mL, Xenotech; rat liver microsomes: 0.5 mg/mL, Xenotech; coenzyme (NADPH/NADH): 1 mM, Sigma Life Science; magnesium chloride: 5 mM, 100 mM phosphate buffer (pH 7.4).
(§2) Preparation of stock solution: powder of Example compounds were precisely weighed and dissolved in DMSO to 5 mM.
(§3) Preparation of phosphate buffer (100 mm, pH 7.4): 0.5M pre-formulated potassium dihydrogen phosphate (150 ml) and 0.5M potassium hydrogen phosphate (700 ml) were mixed well. The pH of the mixture was then adjusted to 7.4 with 0.5M potassium hydrogen phosphate solution. The resulting solution was 5-fold diluted with ultrapure water before use, and magnesium chloride was added to the solution, affording a phosphate buffer (100 mm), containing potassium phosphate (100 mM), magnesium chloride (3.3 mM), pH 7.4. […]
(§4) Data analysis: The peak area of the corresponding compounds and internal standard was detected by LC-MS/MS system, and the peak area ratio of compounds to internal standard was calculated. The slope was measured by plotting the natural log of the percentage of the remaining amount of the compounds versus time, and t1/2 and CLint were calculated according to the following formula, where V/M is equal to 1/protein concentration.

The nature of data set [4]: Liver microsomal metabolism experiment, human liver microsomes. The format is in vitro ADME. The conditions noted are these: pH 7.4, 1 μM compound, 0.5 mg/mL protein, NADPH. The method, then: as §1, §2, §3, §4
A general note: Liver microsomes are vesicles of endoplasmic reticulum, rich in cytochrome P450 enzymes.

The next data set deals with immune cells. As to conditions: relative to TDF; cited from earlier work.
For data set [5] the following is noted: relative to TDF; cited from earlier work.

Counter-ions that a name gives are not always drawn.

Experimental for HIV-1: Compound treatment: the test compounds and the reference compounds were 2-fold diluted with DMSO and added to the cell culture plate. The test compounds and the reference compounds were tested at 8 concentrations in duplicate.

As for `CCCCCCCCCCCCCCCCS(=S)CCO[P@@](=O)(CO[C@H](C)Cn1cnc2c(N)ncnc21)OCOC(=O)OC(C)C` (single isomer, unassigned) [Compound T-3-1], the EC50 in the data set on HIV-1 is at most 5 nM; in the data set with HBV, 100 to 400 nM. Also, the CC50 at 6 days in data set [1] was above 50000 nM. Moreover, the CC50 at 5 days in data set [2] is 100 to 500 nM.

As to `CCCCCCCCCCCCCCCCS(=S)CCO[P@](=O)(CO[C@H](C)Cn1cnc2c(N)ncnc21)OCOC(=O)OC(C)C` (single isomer, unassigned) [Compound T-3-2], the EC50 was at most 5 nM in the data set with HIV-1 and 100 to 400 nM in the data set on HBV. In data set [1], this molecule came in with a CC50 at 6 days above 50000 nM. Besides, the CC50 at 5 days in data set [2] lay in the range of 100 to 500 nM. In addition, the microsomal CLint at 1 μM in data set [3] (read-out: Rat liver microsome experiment CLint) came to 54.4 µL/min/mg; in data set [4] (read-out: Human liver microsome experiment CLint) it was 71 µL/min/mg. Moreover, the half-life at 1 μM came to 25.5 min in data set [3] (read-out: Rat liver microsome experiment t1/2(min)) and 19.5 min in data set [4] (read-out: Human liver microsome experiment t1/2(min)).

Take `CC(C)OC(=O)[C@H](C)N[P@](=O)(CO[C@H](C)Cn1cnc2c(N)ncnc21)Oc1ccccc1` [TAF, Tenofovir Alafenamide Fumarate]: the “concentration of TFV in immune cells metabolized by TAF, times higher than that of TDF” value with immune cells is reported as 4 times. Moreover, in data set [5], the “concentration of TFV in plasma metabolized by TAF, lower than that of TDF” value was 90%.

As usually defined, the EC50 is the concentration that produces a half-maximal response. By CC50 is commonly meant the concentration that lowers cell viability or growth by half.
